# Results reported in patent US10370718B2, “Use of HLA genetic status to assess or select treatment of celiac disease” (ImmusanT, Inc., priority 2014, dated 2019).
# Square brackets hold non-standard residues; d marks the D form. pGlu = O=C1CC[C@@H](C(=O)O)N1
# System: circulating cytokines
# Experiment: Circulating cytokines/chemokines in plasma after dosing (MAGPIX multiplex platform)
# Assay type: in vivo, human
# Details: dose of 150 micrograms; same dose in both genotype groups
# Procedure: 3 cohorts of subjects with HLA-DQ2.5+(heterozygous or homozygous) biopsy-proven Celiac disease on a gluten-free diet for at least 1 year were included in the study. The first cohort (Cohort 1) contained 12 subjects who were dosed with 150 mcg of a gluten peptide composition (an equimolar composition in sodium chloride 0.9% USP of 3 peptides: ELQPFPQPELPYPQPQ (SEQ ID NO: 9), EQPFPQPEQPFPWQP (SEQ ID NO: 10), and EPEQPIPEQPQPYPQQ (SEQ ID NO: 11), each peptide comprising an N-terminal pyroglutamate and C-terminal amidated amino acid) or a placebo (sodium chloride 0.9% USP) intradermally, twice a week for 8 weeks total. The second cohort (Cohort 2) contained 13 subjects who were dosed with 300 mcg of the gluten peptide composition or the placebo intradermally, twice a week for 8 weeks total. […] Both Cohorts 1 and 2 received an oral gluten challenge and were assessed for gamma-interferon (gIFN) release and then returned to baseline prior to starting the treatment regimen. […]
# The progress of each subject before, during and after the trial was assessed using multiple tests including serology (tTG-IgA, DGP-IgG, DGP-IgA, and EMA-IgA), histology, and IFNg whole blood release assay, and cytokine/chemokines in plasma (measured by MAGPIX® multiplex platform). Plasma cytokines and chemokines were measured at several timepoints pre and post first and last dose. […]
substance,measurement,value
"gluten peptide composition: equimolar composition in sodium chloride 0.9% USP of 3 peptides (SEQ ID NO: 9, 10, 11), each with N-terminal pyroglutamate and C-terminal amidated amino acid (chain 1 [pGlu]LQPFPQPELPYPQPQ-NH2; chain 2 [pGlu]QPFPQPEQPFPWQP-NH2; chain 3 [pGlu]PEQPIPEQPQPYPQQ-NH2)","levels of circulating cytokines in response to administration, HLA-DQ2.5 homozygous subjects compared to subjects with other genotypes",generally increased levels of circulating cytokines
